Measurements taken from patent US10894772B2, “Flavor modulator having pyridine derivative or salt thereof as active ingredient” (T. HASEGAWA CO., LTD., priority 2015, dated 2021).

Tests used:
Format in all cases: in vivo
panelists [1] = test: Confirmation of sweetness enhancing effect in sucrose solution; conditions: 5 ppb added to aqueous 3 mass % sucrose solution; 5 panelists
Text: Well-trained 5 panelists tasted an aqueous 3 mass % sucrose solution, and aqueous solutions prepared by adding to the aqueous 3 mass % sucrose solution, 5 ppb of any of the invention products 1 to 6, for organoleptic evaluation in point of sweetness.
Well-trained 5 panelists tasted an aqueous 3 mass % sucrose solution, and an aqueous solution prepared by adding thereto 5 ppb of 2-(3-benzyloxypropyl)pyridine (invention product 101), for organoleptic evaluation in point of sweetness.
Well-trained 5 panelists tasted (1) an aqueous 3 mass % sucrose solution and (2) an aqueous solution prepared by adding […], as 2-(3-benzyloxypropyl)pyridine therein, of the invention product 201 to the aqueous 3 mass % sucrose solution, for organoleptic evaluation in point of sweetness.

panelists [2] = test: Confirmation of umami enhancing effect: comparison with edible salt and 0.05 mass % MSG solution; conditions: 10 ppb with 0.3 mass % edible salt in water; 5 panelists; Example 110
Text: Well-trained 5 panelists tasted an aqueous solution of 0.3 mass % edible salt and 0.05 mass % sodium glutamate (MSG), and an aqueous solution of 0.3 mass edible salt and 10 ppb of 2-(3-benzyloxypropyl)pyridine (invention product 101), for organoleptic evaluation of umami.
Well-trained 5 panelists tasted (1) an aqueous solution of 0.3 mass % edible salt and 0.05 mass % sodium glutamate (MSG), and (2) and an aqueous solution of 0.3 mass % edible salt and […], as 2-(3-benzyloxypropyl)pyridine therein, of the invention product 201, for organoleptic evaluation in point of umami.

panelists [3] = test: Confirmation of umami imparting and saltiness enhancing effect in 0.3 mass % sodium chloride (evaluation in words)
Protocol: An aqueous 0.3 mass % sodium chloride solution (control), and solutions of 2-(3-benzyloxypropyl)pyridine dissolved in a 0.3 mass % sodium chloride solution to have the concentration shown in Table 17 were prepared. As comparative products, an aqueous 0.3 mass % sodium chloride solution (control), and a solution of a comparative product, 2-(2-benzyloxyethyl)pyridine dissolved in a 0.3 mass % sodium chloride solution to have the same concentration were prepared. Well-trained 5 panelists tasted the solutions for organoleptic evaluation of umami impartment and saltiness enhancement.
An aqueous 0.3 mass % sodium chloride solution (control), and solutions of the invention product 201 or the reference product 202 dissolved in a 0.3 mass % sodium chloride solution to have the concentration as 2-(3-benzyloxypropyl)pyridine therein shown in the following Table 23 were prepared. Well-trained 5 panelists tasted the solutions for organoleptic evaluation of umami impartment and saltiness enhancement.

panelists [4] = test: Confirmation of umami in water (organoleptic evaluation of taste and flavor in words); conditions: for Organoleptic Evaluation Taste / Organoleptic Evaluation Flavor: average of 5 panelists
Protocol: A solution was prepared by dissolving 2-(3-benzyloxypropyl)pyridine (invention product 101) in water to have a concentration shown in Table 15. As a comparative product, a solution was prepared by dissolving 2-(2-benzyloxyethyl)pyridine (comparative product 1 prepared in Comparative Example 1) to have the same concentration. Well-trained 5 panelists tasted the solutions and non-added water for organoleptic evaluation of taste and flavor.
The invention product 101 and the comparative product 1 were individually diluted with ethanol to have a proper concentration, and then further diluted with water to prepare an aqueous solution of 2-(3-benzyloxypropyl)pyridine (invention product 101 produced in Example 101) and that of 2-(2-benzyloxyethyl)pyridine (comparative product synthesized in Comparative Example 1) each having a concentration shown in the following Table 21. Well-trained panelists tasted the solution having a different concentration and non-added water for organoleptic evaluation in point of taste and flavor. […]

panelists [5] = test: Confirmation of umami and saltiness enhancement in edible salt and MSG solution; conditions: 10 ppb added to aqueous 0.3 mass % edible salt and 0.03 mass % sodium glutamate (MSG); 5 panelists
Text: Well-trained 5 panelists tasted an aqueous solution of 0.3 mass % edible salt and 0.03 mass % sodium glutamate (MSG), and aqueous solutions prepared by adding to the aqueous solution, 10 ppb of any of the invention products 1 to 6, for organoleptic evaluation in point of umami and saltiness enhancement.
(§1) Well-trained 5 panelists tasted an aqueous solution of 0.3 mass % edible salt and 0.03 mass % sodium glutamate (MSG), and an aqueous solution prepared by adding to the aqueous solution, 10 ppb of 2-(3-benzyloxypropyl)pyridine (invention product 101), for organoleptic evaluation in point of umami and saltiness enhancement.
as §1, with “ppb, as 2-(3-benzyloxypropyl)pyridine therein,” for “ppb”, “the invention” for “2-(3-benzyloxypropyl)pyridine (invention”, “201 or the reference product 202,” for “101),”

panelists [6] = test: Addition to soup broth for udon noodle; conditions: 0.05 ppm added to commercial soup broth for udon noodle; 100 ml diluted with 200 ml hot water; 5 panelists
Protocol: (§2) 0.05 ppm of any of the invention products 1 to 6 was added to commercially-available soup broth for udon noodle (tripe strength). 200 ml of hot water was added to 100 ml of each of the added soup broth and the non-added soup broth, and well-trained 5 panelists tasted them for organoleptic evaluation in point of umami.
as §2, with “2-(3-benzyloxypropyl)pyridine (invention product 101)” for “any of the invention products 1 to 6”
as §2, with “as 2-(3-benzyloxypropyl)pyridine therein” for “of any”, “product 201” for “products 1 to 6”

panelists [7] = test: Confirmation of umami enhancing effect in sodium inosinate solution; conditions: 10 ppb added to aqueous 0.1 mass % sodium inosinate solution; 5 panelists
Text: Well-trained 5 panelists tasted an aqueous solution of 0.1 mass % sodium inosinate (5′-IMP⋅2Na), and aqueous solutions prepared by adding to the aqueous 0.1 mass % sodium inosinate solution, 10 ppb of any of the invention products 1 to 6, for organoleptic evaluation in point of umami.
Well-trained 5 panelists tasted an aqueous solution of 0.1 mass % sodium inosinate (5′-IMP⋅2Na), and an aqueous solution prepared by adding thereto 10 ppb of 2-(3-benzyloxypropyl)pyridine (invention product 101), for organoleptic evaluation in point of umami.
Well-trained 5 panelists tasted (1) 0.1 mass % sodium inosinate (5′-IMP⋅2Na) and (2) an aqueous solution of 0.1 mass % sodium inosinate and 5 ppb, as 2-(3-benzyloxypropyl)pyridine therein, of the invention product 201, for organoleptic evaluation in point of umami.

panelists [8] = test: Flavor evaluation of ethanol solution (bottle mouth and flavor paper); conditions: 0.1% ethanol solution, average evaluation of 5 panelists
Protocol: (§3) A 1% ethanol solution of the invention products 1 to 6 prepared in Examples 1 to 6 was prepared as an evaluation solution. The evaluation solution was prepared in a sample bottle. Regarding the flavor of the sample smelling from the bottle mouth and the flavor of a flavor paper prepared by infiltrating the evaluation solution into a paper, well-trained 5 panelists tested the solution for flavor evaluation.
as §3, with “0.1%” for “1%”, “product 101 (2-(3-benzyloxypropyl)pyridine)” for “products 1 to 6”, “Example 101” for “Examples 1 to 6”, “evaluation. A typical evaluation of the product is as follows.” for “evaluation.”

[9] = in 0.3 mass % sodium chloride solution, Example 108
[10] = aqueous solution, Reference Example 201

c1ccc(COCCCc2ccccn2)cc1 [invention product 101, 2-(3-benzyloxypropyl)pyridine]
sweetness compared with the non-added solution (panelists [1]): stronger sweetness
umami compared with aqueous 0.3 mass % edible salt and 0.05 mass % sodium glutamate (MSG) (panelists [2]): umami of almost the same level
Organoleptic Evaluation (umami impartment and saltiness enhancement) (panelists [3]; 1 ppb in 0.3 mass % sodium chloride solution, average of 5 panelists, Example 108): Slightly umami as compared with control.
concentration providing umami in 0.3 mass % sodium chloride solution relative to that of the solution in water (panelists [3]; Example 108): about 1/10
concentration providing umami in 0.3 mass % sodium chloride solution relative to that of the solution in water (panelists [3]; Example 203): about 1/10
concentration to realize the same degree of umami intensity relative to that of 2-(2-benzyloxyethyl)pyridine (panelists [3]; [9]): about 1/10
umami imparting effect relative to 2-(2-benzyloxyethyl)pyridine (comparative product 1) (panelists [3]; [9]): about 10 times
Organoleptic Evaluation Taste (panelists [4]; 0.1 ppm dissolved in water, Example 107): Weakly umami.
Organoleptic Evaluation Taste (panelists [4]; 0.1 ppm, diluted with ethanol, then with water, Reference Example 201): Weakly umami.
Organoleptic Evaluation Flavor (panelists [4]; 2 ppb dissolved in water, Example 107): Nothing at all.
Organoleptic Evaluation Flavor (panelists [4]; 2 ppb, diluted with ethanol, then with water, Reference Example 201): Nothing at all.
Organoleptic Evaluation Taste (panelists [4]; 10 ppb dissolved in water, Example 107): Slightly umami
Organoleptic Evaluation Taste (panelists [4]; 10 ppb, diluted with ethanol, then with water, Reference Example 201): Slightly umami.
Organoleptic Evaluation Taste (panelists [4]; 20 ppm dissolved in water, Example 107): Strongly umami.
Organoleptic Evaluation Taste (panelists [4]; 20 ppm, diluted with ethanol, then with water, Reference Example 201): Strongly umami.
concentration to provide the same umami intensity relative to that of 2-(2-benzyloxyethyl)pyridine (panelists [4]; [10]): about 1/10
umami imparting effect relative to 2-(2-benzyloxyethyl)pyridine (panelists [4]; [10]): ~10 times
concentration to provide the same umami intensity relative to that of 2-(2-benzyloxyethyl)pyridine (panelists [4]; in water, Example 107): about 1/10
umami and saltiness compared with the non-added solution (panelists [5]): stronger umami and saltiness
umami, saltiness and sweetness compared with non-added soup broth (panelists [6]): stronger umami, saltiness and sweetness
umami compared with the non-added solution (panelists [7]): stronger umami
Flavor Evaluation (panelists [8]): somewhat herbal, green and nutty flavor of natural impression
